# Laboratory results as given in ChEMBL document CHEMBL4184254, “Novel SIRT1 activator MHY2233 improves glucose tolerance and reduces hepatic lipid accumulation in db/db mice” (Bioorg Med Chem Lett, 2018).
# Activity calls are given as the source filed them. The rule behind the calls is not given here.
# Key:
# Mus musculus [1] = assay: Reduction in hepatic FASN mRNA expression in C57BLKS/J-db/db mouse at 5 mg/kg/day dosed via oral gavage for 4 weeks by qRT-PCR method; type: functional, organism-based
# Mus musculus [2] = assay: Suppression of hepatic steatosis in C57BLKS/J-db/db mouse assessed as reduction in liver lipid droplets at 5 mg/kg/day dosed via oral gavage for 4 weeks by hematoxylin-eosin staining based assay; type: functional, organism-based
# Mus musculus [3] = assay: Improvement in insulin resistance in C57BLKS/J-db/db mouse assessed as reduction in serum insulin level at 5 mg/kg/day dosed via oral gavage for 3 weeks by oral glucose tolerance test; type: functional, organism-based
# Mus musculus [4] = assay: Reduction in serum total cholesterol level in C57BLKS/J-db/db mouse at 5 mg/kg/day dosed via oral gavage for 30 days by colorimetric assay; type: functional, organism-based
# Mus musculus [5] = assay: Reduction in hepatic SREBP-1c mRNA expression in C57BLKS/J-db/db mouse at 5 mg/kg/day dosed via oral gavage for 4 weeks by qRT-PCR method; type: functional, organism-based
# Mus musculus [6] = assay: Reduction in hepatic triglyceride level in C57BLKS/J-db/db mouse at 5 mg/kg/day dosed via oral gavage for 4 weeks by colorimetric assay; type: functional, organism-based
# Mus musculus [7] = assay: Effect on beta-oxidation related gene expression in C57BLKS/J-db/db mouse assessed as ACOX1 mRNA expression at 5 mg/kg/day dosed via oral gavage for 4 weeks by qRT-PCR method; type: functional, organism-based
# Mus musculus [8] = assay: Reduction in serum triglyceride level in C57BLKS/J-db/db mouse at 5 mg/kg/day dosed via oral gavage for 30 days by colorimetric assay; type: functional, organism-based
# Mus musculus [9] = assay: Reduction in serum NEFA level in C57BLKS/J-db/db mouse at 5 mg/kg/day dosed via oral gavage for 30 days by colorimetric assay; type: functional, organism-based
# Mus musculus [10] = assay: Effect on food intake in C57BLKS/J-db/db mouse at 5 mg/kg/day dosed via oral gavage for 30 days; type: ADME, organism-based; conditions: in vivo, 720 h
# Mus musculus [11] = assay: Reduction in hepatic ACC mRNA expression in C57BLKS/J-db/db mouse at 5 mg/kg/day dosed via oral gavage for 4 weeks by qRT-PCR method; type: functional, organism-based
# Mus musculus [12] = assay: Effect on beta-oxidation related gene expression in C57BLKS/J-db/db mouse assessed as CPT1 mRNA expression at 5 mg/kg/day dosed via oral gavage for 4 weeks by qRT-PCR method; type: functional, organism-based
# Mus musculus [13] = assay: Effect on body weight in C57BLKS/J-db/db mouse at 5 mg/kg/day dosed via oral gavage for 30 days; type: ADME, organism-based; conditions: in vivo, 720 h
# Mus musculus [14] = assay: Improvement in insulin resistance in C57BLKS/J-db/db mouse assessed as reduction in fasting serum glucose level at 5 mg/kg/day dosed via oral gavage for 3 weeks by oral glucose tolerance test; type: functional, organism-based
# [15] = biological target: T1, NAD-dependent protein deacetylase sirtuin-1 (Homo sapiens) (UniProt Q96EB6); assay: Activation of SIRT1 (unknown origin) assessed as increase in NAD-dependent deacetylase activity using fluoro-substrate peptide by fluorometric assay relative to resveratrol
# T1 sequence (whole entry): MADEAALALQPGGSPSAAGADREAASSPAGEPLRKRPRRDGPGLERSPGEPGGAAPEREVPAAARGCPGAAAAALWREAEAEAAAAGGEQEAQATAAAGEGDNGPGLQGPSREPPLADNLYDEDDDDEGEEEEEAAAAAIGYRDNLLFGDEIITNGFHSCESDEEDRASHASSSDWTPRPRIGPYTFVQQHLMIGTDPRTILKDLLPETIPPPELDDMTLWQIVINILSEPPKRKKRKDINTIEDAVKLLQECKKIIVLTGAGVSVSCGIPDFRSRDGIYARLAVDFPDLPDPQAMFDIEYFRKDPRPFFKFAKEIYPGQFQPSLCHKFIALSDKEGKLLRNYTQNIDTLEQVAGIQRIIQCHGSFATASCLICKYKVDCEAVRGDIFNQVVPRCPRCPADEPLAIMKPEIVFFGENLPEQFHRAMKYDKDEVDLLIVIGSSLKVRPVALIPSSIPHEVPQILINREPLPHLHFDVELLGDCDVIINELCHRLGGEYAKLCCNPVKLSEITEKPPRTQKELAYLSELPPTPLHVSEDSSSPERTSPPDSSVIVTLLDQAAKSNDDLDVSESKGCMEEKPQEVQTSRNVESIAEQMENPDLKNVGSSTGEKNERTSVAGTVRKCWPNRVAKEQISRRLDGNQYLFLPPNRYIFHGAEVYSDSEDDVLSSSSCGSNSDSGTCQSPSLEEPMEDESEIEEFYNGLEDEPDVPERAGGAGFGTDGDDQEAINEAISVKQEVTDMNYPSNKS
# Mus musculus [16] = assay: Improvement in insulin resistance in C57BLKS/J-db/db mouse assessed as restoration of liver Akt Ser473 phosphorylation at 5 mg/kg/day dosed via oral gavage for 3 weeks during oral glucose tolerance test by Western blot; type: functional, organism-based
# Mus musculus [17] = assay: Reduction in hepatic SREBP-1a mRNA expression in C57BLKS/J-db/db mouse at 5 mg/kg/day dosed via oral gavage for 4 weeks by qRT-PCR method; type: functional, organism-based
# Mus musculus [18] = assay: Activation of SIRT1 in C57BLKS/J-db/db mouse assessed as reduction in p53 acetylation at 5 mg/kg/day dosed via oral gavage for 4 weeks by Western blot method; type: functional, organism-based
# Mus musculus [19] = assay: Improvement in insulin resistance in C57BLKS/J-db/db mouse assessed as restoration of liver IRS1 Tyr465 phosphorylation at 5 mg/kg/day dosed via oral gavage for 3 weeks during oral glucose tolerance test by Western blot; type: functional, organism-based
# Mus musculus [20] = assay: Improvement in insulin resistance in C57BLKS/J-db/db mouse assessed as change in glucose level at 5 mg/kg/day dosed via oral gavage for 3 weeks by oral glucose tolerance test; type: functional, organism-based
compound,measurement,setting,value
O=C(Nc1ccccc1-c1nc2cc(CN3CCN(C4CCCCC4)CC3)ccc2o1)c1ccc2ccccc2c1,Activity,Mus musculus [1],Active
same,Activity,Mus musculus [2],Active
same,Activity,Mus musculus [3],Active
same,Activity,Mus musculus [4],Active
same,Activity,Mus musculus [5],Active
same,Activity,Mus musculus [6],Active
same,Activity,Mus musculus [7],inactive
same,Activity,Mus musculus [8],Active
same,Activity,Mus musculus [9],Active
same,Activity,Mus musculus [10],Non-Toxic
same,Activity,Mus musculus [11],Active
same,Activity,Mus musculus [12],inactive
same,Activity,Mus musculus [13],Non-Toxic
same,Activity,Mus musculus [14],Active
same,fold change (FC),[15],1.5
same,Activity,Mus musculus [16],Active
same,Activity,Mus musculus [17],Active
same,Activity,Mus musculus [18],Active
same,Activity,Mus musculus [19],Active
same,Activity,Mus musculus [20],Active
